Measured values: publication PMC12564265, “Navigating the Deep Eutectic Solvent Landscape: Experimental and Machine Learning Solubility Explorations of Syringic, p-Coumaric, and Caffeic Acids” (International Journal of Molecular Sciences, 2025)
Where “and” joins values, the source holds several entries; their conditions need not be identical. Equal entries are not always repeated.

What was measured:
[1] = Shake-flask solubility with spectrophotometric measurement in aqueous DES mixtures; type: physicochemical
Procedure: (§1) In order to determine the solubility of the three studied phenolic acids in deep eutectic solvents, a very well-established shake-flask method coupled with spectrophotometric measurements was utilized. The initial procedure involved the preparation of various DESs, which was conducted by mixing their HBA and HBD counterparts in a glass vessel and heating the composition until the formation of a transparent, uniform liquid. […] For additional measurements, the DESs were mixed with water in varying proportions, creating aqueous DES systems. Saturated solutions of CAF, SYR, and COU were obtained by adding excess amounts of these compounds to test tubes containing either a neat deep eutectic solvent or its aqueous solution. Such samples were placed in the Orbital Shaker Incubator ES-20/60 from Biosan (Riga, Latvia) and heated for 24 h at 25 °C, 30 °C, 35 °C, and 40 °C (±0.1 °C) with simultaneous mixing at 60 rpm. Before measurements, the samples were filtered using a PTFE syringe filter from Qpore (Dallas, TX, USA) with a 0.22 μm pore size. In order to avoid possible precipitation of the saturated solutions at decreased temperatures, the test tubes, syringes, pipette tips, and filters were kept at a temperature identical to that of the samples. The spectrophotometric measurements required the preparation of calibration curves for the three APIs. This involved the preparation of a stock solution of each compound in methanol, which was later successfully diluted, and the obtained solutions of varying concentrations were measured using an A360 spectrophotometer from AOE Instruments (Shanghai, China). The wavelength range was set to 200-500 nm, and the resolution was 1 nm. The analytical wavelengths were determined to be 324 nm for caffeic acid, 273 nm for syringic acid, and 308 nm for p-coumaric acid. The final regression equations, obtained after averaging three distinct sets of measurements, are collected in Table 2 together with determination coefficients and limits of detection (LOD) and quantification (LOQ) for the calibration curves. The measurements of the samples were conducted with the same spectrophotometer and identical settings. Methanol was used for the dilution of the samples so that they could remain within the linearity range of the method. Complete spectra of the samples were recorded, but for the solubility determination, the absorbance values at a specific analytical wavelength were considered. These values were combined with the corresponding regression equations of the calibration curves and served for the calculation of the concentration of the three phenolic acids in the studied samples. The densities of such samples were also measured, and for this task 1 mL of each sample was weighed to a precision of 0.1 mg using an AS 110 R2.PLUS analytical balance from […] (Radom, Poland). The obtained densities enabled the calculation of mole fractions of CAF, SYR, and COU dissolved in the studied DESs. For each considered system, three distinct measurements were conducted, and the results were averaged.

[2] = Shake-flask solubility with spectrophotometric measurement in neat deep eutectic solvents; type: physicochemical
Procedure: as §1

For O=C(O)C=Cc1ccc(O)c(O)c1 [caffeic acid, 3,4-dihydroxycinnamic acid], the Mole fraction solubility ([1]; ChCl – TEG 1:2 + water, x*DES 0.3, 35°C) was 0.0492±0.0002 mole fraction, the Mole fraction solubility ([1]; ChCl – TEG 1:2 + water, x*DES 0.3, 40°C) was 0.0665±0.0004 mole fraction and the Mole fraction solubility ([1]; ChCl – TEG 1:2 + water, x*DES 0.4, 25°C) was 0.0381±0.0003 mole fraction. The Mole fraction solubility ([1]; ChCl – TEG 1:2 + water, x*DES 0.4, 30°C) was 0.0481±0.0003 mole fraction, the Mole fraction solubility ([1]; ChCl – TEG 1:2 + water, x*DES 0.4, 35°C) was 0.0652±0.0003 mole fraction and the Mole fraction solubility ([1]; ChCl – TEG 1:2 + water, x*DES 0.4, 40°C) was 0.0893±0.0002 mole fraction. For the same compound, the Mole fraction solubility ([1]; ChCl – TEG 1:2 + water, x*DES 0.5, 25°C) was 0.0491±0.0004 mole fraction, the Mole fraction solubility ([1]; ChCl – TEG 1:2 + water, x*DES 0.5, 30°C) was 0.0612±0.0003 mole fraction and the Mole fraction solubility ([1]; ChCl – TEG 1:2 + water, x*DES 0.5, 35°C) was 0.0841±0.0005 mole fraction. For the same compound, the Mole fraction solubility ([1]; ChCl – TEG 1:2 + water, x*DES 0.5, 40°C) was 0.1208±0.0009 mole fraction, the Mole fraction solubility ([1]; ChCl – TEG 1:2 + water, x*DES 0.6, 25°C) was 0.0593±0.0005 mole fraction and the Mole fraction solubility ([1]; ChCl – TEG 1:2 + water, x*DES 0.6, 30°C) was 0.0754±0.0003 mole fraction. The Mole fraction solubility ([1]; ChCl – TEG 1:2 + water, x*DES 0.6, 35°C) was 0.1040±0.0006 mole fraction, the Mole fraction solubility ([1]; ChCl – TEG 1:2 + water, x*DES 0.6, 40°C) was 0.1464±0.0014 mole fraction and the Mole fraction solubility ([1]; ChCl – TEG 1:2 + water, x*DES 0.7, 25°C) was 0.0715±0.0007 mole fraction. For the same compound, the Mole fraction solubility ([1]; ChCl – TEG 1:2 + water, x*DES 0.7, 30°C) was 0.0924±0.0007 mole fraction, the Mole fraction solubility ([1]; ChCl – TEG 1:2 + water, x*DES 0.7, 35°C) was 0.1254±0.0014 mole fraction and the Mole fraction solubility ([1]; ChCl – TEG 1:2 + water, x*DES 0.7, 40°C) was 0.1718±0.0012 mole fraction. It also gave a Mole fraction solubility ([1]; ChCl – TEG 1:2 + water, x*DES 0.8, 25°C) of 0.0827±0.0009 mole fraction, a Mole fraction solubility ([1]; ChCl – TEG 1:2 + water, x*DES 0.8, 30°C) of 0.1080±0.0013 mole fraction and a Mole fraction solubility ([1]; ChCl – TEG 1:2 + water, x*DES 0.8, 35°C) of 0.1418±0.0015 mole fraction. For the same compound, the Mole fraction solubility ([1]; ChCl – TEG 1:2 + water, x*DES 0.8, 40°C) was 0.1910±0.0018 mole fraction, the Mole fraction solubility ([1]; ChCl – TEG 1:2 + water, x*DES 0.9, 25°C) was 0.0851 mole fraction and 0.0851±0.0005 mole fraction and the Mole fraction solubility ([1]; ChCl – TEG 1:2 + water, x*DES 0.9, 30°C) was 0.1116±0.0017 mole fraction. For the same compound, the Mole fraction solubility ([1]; ChCl – TEG 1:2 + water, x*DES 0.9, 35°C) was 0.1479±0.0013 mole fraction, the Mole fraction solubility ([1]; ChCl – TEG 1:2 + water, x*DES 0.9, 40°C) was 0.1964±0.0019 mole fraction and the Mole fraction solubility ([1]; ChCl – TEG 1:2, x*DES 1.0 (neat DES), 25°C) was 0.0835±0.0010 mole fraction. It also gave a Mole fraction solubility ([1]; ChCl – TEG 1:2, x*DES 1.0 (neat DES), 30°C) of 0.1032±0.0014 mole fraction, a Mole fraction solubility ([1]; ChCl – TEG 1:2, x*DES 1.0 (neat DES), 35°C) of 0.1364±0.0007 mole fraction and a Mole fraction solubility ([1]; ChCl – TEG 1:2, x*DES 1.0 (neat DES), 40°C) of 0.1928±0.0017 mole fraction. The “Increase in the solubility compared to the neat DES” value ([1]; ChCl-TEG 1:2, x*DES = 0.9 (xwater = 0.1), 25 °C) was 2%, the “Solubility increase between 25 °C and 40 °C” value ([1]; neat DES (x*DES = 1.0) involving betaine (Bet-TEG 1:2)) was 161% and the “Solubility increase between 25 °C and 40 °C” value ([1]; neat DES (x*DES = 1.0) with choline chloride (ChCl-TEG 1:2)) was 231%. It also gave a Mole fraction solubility ([2]; neat DES Bet - DEG, HBA:HBD molar ratio 1:1, 25 °C) of 0.0497±0.0004 mole fraction, a Mole fraction solubility ([2]; neat DES Bet - DEG, HBA:HBD molar ratio 1:2, 25 °C) of 0.0576±0.0005 mole fraction and a Mole fraction solubility ([2]; neat DES Bet - DEG, HBA:HBD molar ratio 1:4, 25 °C) of 0.0537±0.0004 mole fraction. For the same compound, the Mole fraction solubility ([2]; neat DES Bet - ETG, HBA:HBD molar ratio 1:1, 25 °C) was 0.0411±0.0004 mole fraction, the Mole fraction solubility ([2]; neat DES Bet - ETG, HBA:HBD molar ratio 1:2, 25 °C) was 0.0458±0.0004 mole fraction and the Mole fraction solubility ([2]; neat DES Bet - GLY, HBA:HBD molar ratio 1:1, 25 °C) was 0.0561±0.0004 mole fraction. For the same compound, the Mole fraction solubility ([2]; neat DES Bet - GLY, HBA:HBD molar ratio 1:2, 25 °C) was 0.0622±0.0006 mole fraction, the Mole fraction solubility ([2]; neat DES Bet - GLY, HBA:HBD molar ratio 1:4, 25 °C) was 0.0573±0.0002 mole fraction and the Mole fraction solubility ([2]; neat DES Bet - TEG, HBA:HBD molar ratio 1:1, 25 °C) was 0.0655±0.0012 mole fraction. It also gave a Mole fraction solubility ([2]; neat DES Bet - TEG, HBA:HBD molar ratio 1:2, 25 °C) of 0.0755±0.0010 mole fraction, a Mole fraction solubility ([2]; neat DES Bet - TEG, HBA:HBD molar ratio 1:2, 25 °C, listed as Caffeic acid) of 0.0755 mole fraction and a Mole fraction solubility ([2]; neat DES Bet - TEG, HBA:HBD molar ratio 1:4, 25 °C) of 0.0716±0.0007 mole fraction. For the same compound, the Mole fraction solubility ([2]; neat DES ChCl - DEG, HBA:HBD molar ratio 1:1, 25 °C) was 0.0584±0.0003 mole fraction, the Mole fraction solubility ([2]; neat DES ChCl - DEG, HBA:HBD molar ratio 1:2, 25 °C) was 0.0664±0.0005 mole fraction and the Mole fraction solubility ([2]; neat DES ChCl - ETG, HBA:HBD molar ratio 1:1, 25 °C) was 0.0435±0.0004 mole fraction. For the same compound, the Mole fraction solubility ([2]; neat DES ChCl - ETG, HBA:HBD molar ratio 1:2, 25 °C) was 0.0494±0.0003 mole fraction, the Mole fraction solubility ([2]; neat DES ChCl - ETG, HBA:HBD molar ratio 1:4, 25 °C) was 0.0471±0.0003 mole fraction and the Mole fraction solubility ([2]; neat DES ChCl - TEG, HBA:HBD molar ratio 1:2, 25 °C) was 0.0835 mole fraction.
